Experimental data reported in patent publication US20120122848A1, “(+)-3-HYDROXYMORPHINAN DERIVATIVES AS NEUROPROTECTANTS” (GREEN CROSS CORPORATION, priority 2009, published 2012).
Where a name gives a salt, the structure may show the parent alone.

Columns and labels:
[1] = Cell cytotoxicity test: protection of HT22 cells against glutamate toxicity (EC50) and cytotoxicity of the compounds (CC50), MTT; format: cell-based, mouse; details: mouse, HT22 cells (mouse hippocampal neuron)
Summary of the method: (§1)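 Cells plated 16 hrs, then exposed to 5 mM glutamate plus a compound concentration series for 24 hrs in DMEM with 10% FBS. Viability by MTT (4 hrs), absorbance at 450 nm; EC50 is protection against glutamate toxicity, CC50 is compound cytotoxicity.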

[2] = test system: HT22 cells (mouse hippocampal neuron); assay: as above; format: cell-based; details: Mus musculus, HT-22, five millimolar glutamate, 24 hrs, read-out: EC50 (neuroprotective effect against glutamate toxicity)
Summary of the method: as §1

[3] = Total antioxidant activity assay (TEAC; metmyoglobin, 2,2′-azinobis(3-ethylbenzoline 6-sulfonate), H2O2); details: 7.5 min at 30° C., absorbance at 734 nm
Method: Briefly, 1 ml of reaction mixture including 2.5 μM metmyoglobin, 150 μM 2,2′-azinobis(3-ethylbenzoline 6-sulfonate), 75 μM H2O2, and 0.84% sample or Trolox (for standard) in PBS was incubated for 7.5 min at 30° C.; then the absorbance at 734 nm was measured. The data are normalized to 1 mM Trolox (TEAC activity) [Kumiko I. et al., The Activation of Dopamine D4 Receptors Inhibits Oxidative Stress-Induced Nerve Cell Death., J. Neurosci., 2001]. The EC50 values were analyzed statistically using Prizm® (GraphPad Software Inc., San Diego, Calif., USA).

SMILES: Oc1cc2c(cc1Nc1ccccc1N1CCCCC1)C[C@@H]1NCC[C@]23CCCC[C@H]13 [Example 128, (+)-3-Hydroxy-2-(2-(piperidin-1-yl)phenylamino)morphinan TFA salt]
- CC50 at 24 h [1]: 1.6 µM
- EC50 [2]: 0.0356 µM

SMILES: CN(C)c1cc2c(cc1O)[C@]13CCCC[C@@H]1[C@H](C2)NCC3 [Example 98, (+)-2-(Dimethylamino)-3-hydroxymorphinan TFA salt]
- CC50 at 24 h [1]: > 100 µM
- EC50 [2]: 5.69 µM

SMILES: Oc1cc2c(cc1Nc1ccc3ncccc3c1)C[C@@H]1NCC[C@]23CCCC[C@H]13 [Example 68, TFA salt]
- CC50 at 24 h [1]: 8.5 µM
- EC50 [2]: 1.72 µM

SMILES: O=C(O)c1ccccc1Nc1cc2c(cc1O)[C@]13CCCC[C@@H]1[C@H](C2)NCC3 [Example 109, (+)-2-(2-Carboxyphenylamino)-3-hydroxymorphinan TFA salt]
- CC50 at 24 h [1]: > 100 µM
- EC50 [2]: 14.1 µM

SMILES: CCc1ccccc1Nc1cc2c(cc1O)[C@]13CCCC[C@@H]1[C@H](C2)NCC3 [Example 49, (+)-2-(2-Ethylphenylamino)-3-hydroxymorphinan TFA salt]
- CC50 at 24 h [1]: 1.1 µM
- EC50 [2]: 0.0328 µM

SMILES: Oc1cc2c(cc1Nc1ccc3c(c1)OCCO3)C[C@@H]1NCC[C@]23CCCC[C@H]13 [Example 37, (+)-2((3,4-Ethylenedioxy)phenylamino)-3-hydroxymorphinan TFA salt]
- CC50 at 24 h [1]: 14.2 µM
- EC50 [2]: 0.14 µM

SMILES: COc1ccccc1Nc1cc2c(cc1O)[C@]13CCCC[C@@H]1[C@H](C2)NCC3 [Example 42, (+)-3-Hydroxy-2-(2-methoxyphenylamino)morphinan TFA salt]
- CC50 at 24 h [1]: 11.4 µM
- EC50 [2]: 0.0959 µM

SMILES: COc1ccc(Nc2cc3c(cc2O)[C@]24CCCC[C@@H]2[C@H](C3)NCC4)cc1OC [Example 63, (+)-2-(3,4-Dimethoxyphenylamino)-3-hydroxymorphinan TFA salt]
- CC50 at 24 h [1]: 10.1 µM
- EC50 [2]: 0.0289 µM

SMILES: CN(c1cc2c(cc1O)[C@]13CCCC[C@@H]1[C@H](C2)NCC3)c1ccccc1NS(C)(=O)=O [Example 125, (+)-3-Hydroxy-2-(2-(methanesulfonamido)phenyl(methyl)amino)morphinan TFA salt]
- CC50 at 24 h [1]: 45.9 µM
- EC50 [2]: 10.9 µM

SMILES: Oc1cc2c(cc1Nc1cccc3cccnc13)C[C@@H]1NCC[C@]23CCCC[C@H]13 [Example 66, TFA salt]
- CC50 at 24 h [1]: 2.9 µM
- EC50 [2]: 0.0213 µM

SMILES: CCS(=O)(=O)Nc1ccccc1Nc1cc2c(cc1O)[C@]13CCCC[C@@H]1[C@H](C2)NCC3 [Example 111, (+)-2-(2-(Ethanesulfonamido)phenylamino)-3-hydroxymorphinan TFA salt]
- CC50 at 24 h [1]: 36.5 µM
- EC50 [2]: 0.475 µM

SMILES: Oc1cccc(Nc2cc3c(cc2O)[C@]24CCCC[C@@H]2[C@H](C3)NCC4)c1 [Example 44, (+)-3-Hydroxy-2-(3-hydroxyphenylamino)morphinan TFA salt]
- CC50 at 24 h [1]: 75 µM
- EC50 [2]: 0.802 µM

SMILES: Oc1cc2c(cc1NCCC(F)(F)F)C[C@@H]1NCC[C@]23CCCC[C@H]13 [Example 97, (+)-3-Hydroxy-2-(3-trifluoropropylamino)morphinan TFA salt]
- CC50 at 24 h [1]: 67 µM
- EC50 [2]: 0.183 µM

SMILES: CC(C)c1ccccc1Nc1cc2c(cc1O)[C@]13CCCC[C@@H]1[C@H](C2)NCC3 [Example 50, (+)-3-Hydroxy-2-(2-isopropylphenylamino)morphinan TFA salt]
- CC50 at 24 h [1]: 1 µM
- EC50 [2]: 0.043 µM

SMILES: CCOCCNc1cc2c(cc1O)[C@]13CCCC[C@@H]1[C@H](C2)NCC3 [Example 99, (+)-2-(2-Ethoxyethylamino)-3-hydroxymorphinan TFA salt]
- CC50 at 24 h [1]: > 100 µM
- EC50 [2]: 10.4 µM

SMILES: CCCC(CCC)Nc1cc2c(cc1O)[C@]13CCCC[C@@H]1[C@H](C2)NCC3 [Example 89, (+)-2-(Heptan-4-ylamino)-3-hydroxymorphinan TFA salt]
- CC50 at 24 h [1]: 1.94 µM
- EC50 [2]: 0.074 µM

SMILES: Cc1cc(C)cc(Nc2cc3c(cc2O)[C@]24CCCC[C@@H]2[C@H](C3)NCC4)c1 [Example 27, (+)-2-(3,5-Dimethylphenylamino)-3-hydroxymorphinan TFA salt]
- CC50 at 24 h [1]: 1.52 µM
- EC50 [2]: 0.0273 µM

SMILES: Oc1cc2c(cc1N1CCCCCC1)C[C@@H]1NCC[C@]23CCCC[C@H]13 [Example 17, (+)-2-(Azepan-1-yl)-3-hydroxymorphinan TFA salt]
- CC50 at 24 h [1]: 12.2 µM
- EC50 [2]: 0.579 µM

SMILES: CCCNc1cc2c(cc1O)[C@]13CCCC[C@@H]1[C@H](C2)NCC3 [Example 88, (+)-3-Hydroxy-2-propylaminomorphinan TFA salt]
- CC50 at 24 h [1]: 37.2 µM
- EC50 [2]: 0.0416 µM

SMILES: Oc1cc2c(cc1NC1CCCC1)C[C@@H]1NCC[C@]23CCCC[C@H]13 [Example 92, (+)-2-Cyclopentylamino-3-hydroxymorphinan TFA salt]
- CC50 at 24 h [1]: 378 µM
- EC50 [2]: 0.0927 µM

SMILES: Oc1cc2c(cc1N1CCOCC1)C[C@@H]1NCC[C@]23CCCC[C@H]13 [Example 86, (+)-3-Hydroxy-2-morpholinomorphinan TFA salt]
- CC50 at 24 h [1]: > 100 µM
- EC50 [2]: 1.55 µM

SMILES: O=C(Nc1ccccc1)Nc1ccccc1Nc1cc2c(cc1O)[C@]13CCCC[C@@H]1[C@H](C2)NCC3 [Example 122, (+)-3-Hydroxy-2-(2-(phenylureido)phenylamino)morphinan TFA salt]
- CC50 at 24 h [1]: 33.8 µM
- EC50 [2]: 3.7 µM

SMILES: Oc1cc2c(cc1Nc1ccc(OC(F)(F)F)cc1)C[C@@H]1NCC[C@]23CCCC[C@H]13 [Example 58, (+)-3-Hydroxy-2-(4-(trifluoromethoxy)phenylamino)morphinan TFA salt]
- CC50 at 24 h [1]: 1.4 µM
- EC50 [2]: 0.131 µM

SMILES: Oc1cc2c(cc1Nc1ccc(C(F)(F)F)cc1)C[C@@H]1NCC[C@]23CCCC[C@H]13 [Example 35, (+)-3-Hydroxy-2-(4-(trifluoromethyl)phenylamino)morphinan TFA salt]
- CC50 at 24 h [1]: 52.8 µM
- EC50 [2]: 2.59 µM

SMILES: NC(=O)c1ccccc1Nc1cc2c(cc1O)[C@]13CCCC[C@@H]1[C@H](C2)NCC3 [Example 61, (+)-2-(2-Carbamoylphenylamino)-3-hydroxymorphinan TFA salt]
- CC50 at 24 h [1]: 50 µM
- EC50 [2]: 1.79 µM

SMILES: Oc1cc2c(cc1Nc1ccc(Cl)cc1)C[C@@H]1NCC[C@]23CCCC[C@H]13 [Example 25, (+)-2-(4-Chlorophenylamino)-3-hydroxymorphinan TFA salt]
- CC50 at 24 h [1]: 1.87 µM
- EC50 [2]: 0.061 µM

SMILES: Cc1c(C)c2c(c(C)c1O)CCC(C)(C(=O)O)O2 (centres unmarked) [Trolox]
- EC50 [3]: 47.5 µM
